Test results from article PMC7558399, “In Vitro Selective Growth-Inhibitory Activities of Phytochemicals, Synthetic Phytochemical Analogs, and Antibiotics against Diarrheagenic/Probiotic Bacteria and Cancer/Normal Intestinal Cells” (Pharmaceuticals, 2020).
≈ marks a conversion by molar mass, not a printed value. Counter-ions that a name gives are not always drawn. Like-named read-outs stand apart in the source and are kept apart here.

Legend:
Assay type in all cases: cell-based
[1] = test system: Clostridium perfringens (DSMZ 11778); assay: microbe, parasite or virus in culture; conditions: DSMZ11778
[2] = test system: HT29 (ATCC HTB 38) intestinal cancer cells; assay: MTT cytotoxicity assay, HT29; conditions: Homo sapiens; for IC50: read-out: IC50 ± SD; for IC80: read-out: IC80 ± SD (80% inhibitory concentration of proliferation)
[3] = test system: Vibrio parahaemolyticus (ATCC 17802); assay: Broth microdilution MIC, V. parahaemolyticus; conditions: read-out: MIC
[4] = test system: Bifidobacterium longum ssp. longum (DSMZ 20219); assay: Broth microdilution MIC, B. longum ssp. longum; conditions: DSMZ20219, Bifidobacterium longum ssp. longum, read-out: MIC
[5] = test system: Lactobacillus rhamnosus (CCM 7091); assay: Broth microdilution MIC, L. rhamnosus; conditions: Lacticaseibacillus rhamnosus, CCM7091, Lactobacillus rhamnosus, read-out: MIC
[6] = test system: FHs 74 Int (ATCC CCL 241) intestinal normal cells; assay: MTT cytotoxicity assay, FHs 74 Int; conditions: 72 h; for IC50 / IC80: FHs74Int
[7] = test system: intestinal cancer cells (HT29 and Caco-2); assay: MTT cytotoxicity assay, mean for intestinal cancer cells; conditions: for IC50: read-out: x¯ -CC ± SD: mean IC50 for intestinal cancer cells; for IC80: read-out: x¯ -CC ± SD: mean IC80 for intestinal cancer cells
[8] = test system: Lactobacillus reuteri (CCM 3625); assay: Broth microdilution MIC, L. reuteri; conditions: Limosilactobacillus reuteri, CCM3625, Lactobacillus reuteri, read-out: MIC
[9] = test system: Bifidobacterium bifidum (ATCC 29521); assay: Broth microdilution MIC, B. bifidum; conditions: read-out: MIC
[10] = test system: Yersinia enterocolitica (ATCC 9610); assay: Broth microdilution MIC, Y. enterocolitica; conditions: read-out: MIC
[11] = test system: S. enterica ssp. enterica serovar Typhimurium (ATCC 14028); assay: Broth microdilution MIC, Salmonella Typhimurium; conditions: Salmonella Typhimurium, read-out: MIC
[12] = test system: Bifidobacterium breve (ATCC 15700); assay: Broth microdilution MIC, B. breve; conditions: read-out: MIC
[13] = test system: Listeria monocytogenes (ATCC 7644); assay: Broth microdilution MIC, L. monocytogenes; conditions: ATCC7644, growth inhibited by ≥80%, read-out: MIC
[14] = test system: Shigella flexneri (ATCC 12022); assay: microbe, parasite or virus in culture
[15] = test system: Bifidobacterium adolescentis (DSMZ 20087); assay: Broth microdilution MIC, B. adolescentis; conditions: read-out: MIC
[16] = test system: Bacillus cereus (ATCC 14579); assay: Broth microdilution MIC, B. cereus; conditions: median/mode, read-out: MIC
[17] = test system: Lactobacillus casei (DSMZ 20011); assay: Broth microdilution MIC, L. casei; conditions: Lacticaseibacillus casei, DSMZ20011, Lactobacillus casei, read-out: MIC
[18] = test system: Bifidobacterium animalis spp. lactis (DSMZ 10140); assay: Broth microdilution MIC, B. animalis spp. lactis; conditions: DSMZ10140, Bifidobacterium animalis spp. lactis, read-out: MIC
[19] = test system: E. coli 0175:H7 (NCTC 12900); assay: microbe, parasite or virus in culture; conditions: Escherichia coli, NCTC12900
[20] = test system: Clostridium difficile (DSMZ 12056); assay: microbe, parasite or virus in culture; conditions: Clostridioides difficile, DSMZ12056; Clostridium difficile; […]; read-out: MIC
[21] = test system: Bacteroides fragilis (ATCC 25285); assay: Broth microdilution MIC, B. fragilis; conditions: read-out: MIC
[22] = test system: Caco-2 (ATCC HTB 37) intestinal cancer cells; assay: MTT cytotoxicity assay, Caco-2; conditions: Homo sapiens; for IC50: read-out: IC50 ± SD; for IC80: read-out: IC80 ± SD (80% inhibitory concentration of proliferation)
[23] = test system: probiotic bacteria (9 strains); assay: Broth microdilution MIC, probiotic bacteria as a group (mean or range over strains)
[24] = test system: Enterococcus faecalis (ATCC 29212); assay: Broth microdilution MIC, E. faecalis; conditions: read-out: MIC
[25] = test system: Salmonella enterica ssp. enterica serovar Enteritidis (ATCC 13076); assay: Broth microdilution MIC, Salmonella Enteritidis; conditions: Salmonella Enteritidis, read-out: MIC
[26] = test system: diarrheagenic bacteria (12 strains); assay: organism not typed
[27] = test system: Escherichia coli (ATCC 25922); assay: Broth microdilution MIC, E. coli; conditions: read-out: MIC
[28] = FHs 74 Int (intestinal normal cells), MTT
[29] = bifidobacteria, range over strains, read-out: MICs
[30] = mean of 9 strains, >512 replaced with 1024, read-out: x¯ -PB ± SD: mean MIC for probiotic bacteria
[31] = mean of 12 strains, >512 replaced with 1024, read-out: x¯ -DB ± SD: mean MIC for diarrheagenic bacteria

With `CN[C@H](CC(C)C)C(=O)N[C@H]1C(=O)N[C@@H](CC(N)=O)C(=O)N[C@H]2C(=O)N[C@H]3C(=O)N[C@H](C(=O)N[C@H](C(=O)O)c4cc(O)cc(O)c4-c4cc3ccc4O)[C@H](O)c3ccc(c(Cl)c3)Oc3cc2cc(c3O[C@@H]2O[C@H](CO)[C@@H](O)[C@H](O)[C@H]2O[C@H]2C[C@](C)(N)[C@H](O)[C@H](C)O2)Oc2ccc(cc2Cl)[C@H]1O` [VM, vancomycin hydrochloride] the MIC [1] was 1 µg/mL, the IC50 ([2]; HT-29, 72 h) was > 512 µg/mL and the IC80 ([2]; HT-29, 72 h) was > 512 µg/mL. For the same compound, the MIC ([3]; ATCC17802, […]) was 256 µg/mL, the MIC ([4]; […]) was 2 µg/mL and the MIC ([5]; […]) was 64 µg/mL. The “IC50 ± SD” value [6, 28] was “- (Not active (MIC/IC50/80 > 512 μg/mL, the value 1024 μg/mL was used for average calculation))”, the “IC80 ± SD (80% inhibitory concentration of proliferation)” value [6, 28] was “- (Not active (MIC/IC50/80 > 512 μg/mL, the value 1024 μg/mL was used for average calculation))” and the IC50 ([6]; read-out: IC50 ± SD, FHs 74 Int (intestinal normal cells), MTT) was > 512 µg/mL. For the same compound, the IC80 ([6]; read-out: IC80 ± SD (80% inhibitory concentration of proliferation), FHs 74 Int (intestinal normal cells), MTT) was > 512 µg/mL, the IC50 [7] was > 512 µg/mL and the IC80 [7] was > 512 µg/mL. For the same compound, the MIC ([8]; […]) was 64 µg/mL, the MIC ([9]; ATCC29521, […]) was 4 µg/mL and the MIC ([10]; ATCC9610, […]) was > 512 µg/mL. The MIC ([11]; […]) was 512 µg/mL, the MIC ([12]; ATCC15700, […]) was 4 µg/mL and the MIC [13] was 8 µg/mL. For the same compound, the MIC ([14]; ATCC12022, […], read-out: MIC) was > 512 µg/mL, the MIC ([15]; DSMZ20087, […]) was 2 µg/mL and the MIC ([16]; ATCC14579, […]) was 256 µg/mL. For the same compound, the MIC ([17]; […]) was 256 µg/mL, the MIC ([18]; […]) was 2 µg/mL and the MIC [19] was 512 µg/mL. For the same compound, the MIC [20] was 2 µg/mL, the MIC ([21]; ATCC25285, […]) was 32 µg/mL and the IC50 ([22]; Caco-2, 72 h) was > 512 µg/mL. For the same compound, the IC80 ([22]; Caco-2, 72 h) was > 512 µg/mL, the MIC [23, 29] was 2 to 4 µg/mL and the MIC ([23]; lactobacilli, range over strains, read-out: MICs) was 64 to 256 µg/mL. For the same compound, the MIC [23, 30] was 47.8 ± 78 µg/mL, the MIC ([24]; ATCC29212, […]) was > 512 µg/mL and the MIC ([25]; […]) was 512 µg/mL. The MIC ([26]; both clostridial species tested, read-out: MICs) was 0.5 to 8 µg/mL, the MIC [26, 31] was 513 ± 404 µg/mL and the MIC ([27]; ATCC25922, […]) was > 512 µg/mL.
For `O=C(N[C@H](CO)[C@H](O)c1ccc([N+](=O)[O-])cc1)C(Cl)Cl` [CA, chloramphenicol], the MIC [1] was 4 µg/mL (≈ 12.4 µM), the IC50 ([2]; HT-29, HT29, MTT, 72 h) was 271.1 ± 1 µg/mL (≈ 839 µM) and the IC80 ([2]; HT-29, HT29, MTT, 72 h) was > 512 µg/mL. The MIC ([3]; ATCC17802, growth inhibited by ≥80%) was 2 µg/mL (≈ 6.19 µM), the MIC ([4]; growth inhibited by ≥80%) was 4 µg/mL (≈ 12.4 µM) and the MIC ([5]; growth inhibited by ≥80%) was 8 µg/mL (≈ 24.8 µM). For the same compound, the “IC80 ± SD (80% inhibitory concentration of proliferation)” value [6, 28] was “- (Not active (MIC/IC50/80 > 512 μg/mL, the value 1024 μg/mL was used for average calculation))”, the IC50 ([6]; FHs 74 Int (intestinal normal cells), MTT, read-out: IC50 ± SD) was 30.7 ± 5.6 µg/mL (≈ 95 µM) and the IC80 ([6]; FHs 74 Int (intestinal normal cells), MTT, read-out: IC80 ± SD (80% inhibitory concentration of proliferation)) was > 512 µg/mL. For the same compound, the IC50 ([7]; mean of HT29 and Caco-2, >512 replaced with 1024) was 355 ± 84 µg/mL (≈ 1100 µM), the IC80 [7] was > 512 µg/mL and the MIC ([8]; growth inhibited by ≥80%) was 8 µg/mL (≈ 24.8 µM). It also gave an MIC ([9]; ATCC29521, growth inhibited by ≥80%) of 4 µg/mL (≈ 12.4 µM), an MIC ([10]; ATCC9610, growth inhibited by ≥80%) of 16 µg/mL (≈ 49.5 µM) and an MIC ([11]; growth inhibited by ≥80%) of 8 µg/mL (≈ 24.8 µM). The MIC ([12]; ATCC15700, growth inhibited by ≥80%) was 4 µg/mL (≈ 12.4 µM), the MIC [13] was 8 µg/mL (≈ 24.8 µM) and the MIC ([14]; ATCC12022) was 4 µg/mL (≈ 12.4 µM). It also gave an MIC ([15]; DSMZ20087, growth inhibited by ≥80%) of 4 µg/mL (≈ 12.4 µM), an MIC ([16]; ATCC14579, growth inhibited by ≥80%) of 8 µg/mL (≈ 24.8 µM) and an MIC ([17]; growth inhibited by ≥80%) of 16 µg/mL (≈ 49.5 µM). For the same compound, the MIC ([18]; growth inhibited by ≥80%) was 4 µg/mL (≈ 12.4 µM), the MIC [19] was 8 µg/mL (≈ 24.8 µM) and the MIC [20] was 4 µg/mL (≈ 12.4 µM). The MIC ([21]; ATCC25285, growth inhibited by ≥80%) was 4 µg/mL (≈ 12.4 µM), the IC50 ([22]; Caco-2, MTT, 72 h) was 439.3 ± 4 µg/mL (≈ 1360 µM) and the IC80 ([22]; Caco-2, MTT, 72 h) was > 512 µg/mL. For the same compound, the MIC [23, 29] was 2 to 4 µg/mL (≈ 6.19 to 12.4 µM), the MIC [23, 30] was 6.2 ± 4 µg/mL (≈ 19.2 µM) and the MIC ([24]; ATCC29212, growth inhibited by ≥80%) was 128 µg/mL (≈ 396 µM). The MIC ([25]; growth inhibited by ≥80%) was 4 µg/mL (≈ 12.4 µM), the MIC ([26]; at least half of the diarrheagenic bacteria, read-out: MICs) was 1 to 4 µg/mL (≈ 3.09 to 12.4 µM) and the MIC [26, 31] was 16.5 ± 34 µg/mL (≈ 51.1 µM). It also gave an MIC ([27]; ATCC25922, growth inhibited by ≥80%) of 4 µg/mL (≈ 12.4 µM).
